Reference: ChEMBL document CHEMBL1155906, “Structural modifications of N-arylamide oxadiazoles: Identification of N-arylpiperidine oxadiazoles as potent and selective agonists of CB2” (Bioorg Med Chem Lett, 2008)
pEC50: −log10 of the molar value. Activity calls are given as the source filed them. The rule behind the calls is not given here.

Tests used:
Cannabinoid receptor 2 [1] = target: T1, Cannabinoid receptor 2 (Homo sapiens, UniProt P34972); test: Agonist activity at human CB2 receptor expressed in insect Sf9 cells assessed as effect on Eu-GTP binding
T1 sequence (P34972 whole entry): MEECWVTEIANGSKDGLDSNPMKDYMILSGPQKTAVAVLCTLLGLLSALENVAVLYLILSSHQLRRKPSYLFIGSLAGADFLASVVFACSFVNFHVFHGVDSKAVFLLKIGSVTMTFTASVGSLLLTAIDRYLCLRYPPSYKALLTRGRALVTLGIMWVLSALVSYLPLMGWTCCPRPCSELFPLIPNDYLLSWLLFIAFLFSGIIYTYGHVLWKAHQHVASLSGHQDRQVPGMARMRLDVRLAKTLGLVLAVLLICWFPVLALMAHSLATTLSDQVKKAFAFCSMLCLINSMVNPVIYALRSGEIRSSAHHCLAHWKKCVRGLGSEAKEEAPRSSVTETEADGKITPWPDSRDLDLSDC

Cannabinoid receptor 1 [2] = target: T2, Cannabinoid receptor 1 (Homo sapiens, UniProt P21554); test: Agonist activity at human CB1 receptor expressed in insect Sf9 cells assessed as effect on Eu-GTP binding at 10 uM
T2 sequence (P21554 whole entry): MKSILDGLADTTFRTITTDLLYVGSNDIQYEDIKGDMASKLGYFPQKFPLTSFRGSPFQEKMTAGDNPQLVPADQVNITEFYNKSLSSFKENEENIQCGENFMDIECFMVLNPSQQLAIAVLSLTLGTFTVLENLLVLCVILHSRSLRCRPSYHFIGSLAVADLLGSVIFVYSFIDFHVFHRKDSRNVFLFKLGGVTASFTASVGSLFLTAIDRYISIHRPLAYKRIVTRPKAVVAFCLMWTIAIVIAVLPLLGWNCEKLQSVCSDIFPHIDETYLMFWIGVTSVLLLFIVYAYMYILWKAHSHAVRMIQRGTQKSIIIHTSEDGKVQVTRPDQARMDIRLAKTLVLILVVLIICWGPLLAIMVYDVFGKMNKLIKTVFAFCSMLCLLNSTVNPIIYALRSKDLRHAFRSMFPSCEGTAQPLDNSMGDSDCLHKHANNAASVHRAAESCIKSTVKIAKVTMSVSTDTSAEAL

Cannabinoid receptor 2 [3] = target: T1, Cannabinoid receptor 2; test: Agonist activity at human CB2 receptor expressed in insect Sf9 cells assessed as effect on Eu-GTP binding relative to CP-55940
Cannabinoid receptor 1 [4] = target: T2, Cannabinoid receptor 1; test: Agonist activity at human CB1 receptor expressed in insect Sf9 cells assessed as effect on Eu-GTP binding relative to CP-55940
[5] = Metabolic stability in rat liver microsome assessed as intrinsic clearance; assay type: ADME; details: liver microsomes
Cannabinoid receptor 1 [6] = target: T2, Cannabinoid receptor 1; test: Agonist activity at human CB1 receptor expressed in insect Sf9 cells assessed as effect on Eu-GTP binding
[7] = Metabolic stability in human liver microsome assessed as intrinsic clearance; assay type: ADME; details: liver microsomes
Cannabinoid receptor 2 [8] = target: T1, Cannabinoid receptor 2; test: Agonist activity at human CB2 receptor assessed as inhibition of forskolin-induced increase in intracellular cAMP; assay type: functional, cell-based
Cannabinoid receptor 2 [9] = target: T1, Cannabinoid receptor 2; test: Agonist activity at human CB2 receptor assessed as inhibition of forskolin-induced increase in intracellular cAMP relative to CP-55940; assay type: functional, cell-based
Homo sapiens = species on record: Homo sapiens; test: Selectivity for human CB2 receptor over human CB1 receptor by on Eu-GTP binding assay
Cannabinoid receptor 1 [10] = target: T2, Cannabinoid receptor 1; test: Agonist activity at human CB1 receptor assessed as inhibition of forskolin-induced increase in intracellular cAMP; assay type: functional, cell-based
Cannabinoid receptor 1 [11] = target: T2, Cannabinoid receptor 1; test: Agonist activity at human CB1 receptor assessed as inhibition of forskolin-induced increase in intracellular cAMP relative to CP-55940; assay type: functional, cell-based
Cannabinoid receptor 2 [12] = target: T1, Cannabinoid receptor 2; test: Agonist activity at human CB2 receptor expressed in insect Sf9 cells assessed as effect on Eu-GTP binding at 10 uM
[13] = Clearance in iv dosed rat; assay type: ADME, organism-based; details: in vivo

Row | SMILES | pEC50 (Cannabinoid receptor 2 [1]) | Activity (Cannabinoid receptor 1 [2]) | Emax (Cannabinoid receptor 2 [3]) [%] | Emax (Cannabinoid receptor 1 [4]) [%] | microsomal CLint [5] [µL/min/mg] | pEC50 (Cannabinoid receptor 1 [6]) | microsomal CLint [7] [µL/min/mg] | pEC50 (Cannabinoid receptor 2 [8]) | Emax (Cannabinoid receptor 2 [9]) [%] | Selectivity (Homo sapiens) | pEC50 (Cannabinoid receptor 1 [10]) | Emax (Cannabinoid receptor 1 [11]) [%] | Activity (Cannabinoid receptor 2 [12]) | clearance [13] [mL/min/kg]
1 | Fc1ccc(-c2noc(C3CCN(c4ccc(Cl)c(C(F)(F)F)c4)CC3)n2)c(Cl)c1 | 6.42 | inactive | 93 | 2 | – | – | – | – | – | – | – | – | – | –
2 | c1ccc2ncc(N3CCC(c4nc(-c5ccncc5)no4)CC3)cc2c1 | 6.50 | inactive | 53 | 8 | – | – | – | – | – | – | – | – | – | –
3 | Fc1ccc(-c2noc([C@H]3CC[C@@H](Nc4cnc5ccccc5c4)C3)n2)c(Cl)c1 (racemic) | 5.80 | inactive | 77 | 4 | – | – | – | – | – | – | – | – | – | –
4 | Clc1cnccc1-c1noc(C2CCN(c3cnc4ccccc4c3)CC2)n1 | 7.62 | – | 103 | 23 | 187 | 7.02 | 251 | – | – | – | – | – | – | –
5 | c1ccc2ncc(N3CCC(c4nc(C5CCCCC5)no4)CC3)cc2c1 | 7.59 | – | 113 | 105 | 185 | 6.22 | 283 | – | – | – | – | – | – | –
6 | Fc1ccc(-c2noc(C3CCN(c4cnc5c(C(F)(F)F)cccc5c4)CC3)n2)c(Cl)c1 | 7.80 | – | 106 | 34 | 54 | 7.82 | 23 | – | – | – | – | – | – | –
7 | Fc1ccc(-c2noc([C@@H]3CCC[C@H]3Nc3cnc4ccccc4c3)n2)c(Cl)c1 (racemic) | 6.33 | – | 73 | 39 | – | 5.65 | – | – | – | – | – | – | – | –
8 | CC(C)(CCc1nc(-c2ccc(F)cc2Cl)no1)Nc1cnc2ccccc2c1 | 7.28 | – | 52 | 70 | 775 | 5.89 | 429 | 7.30 | 93 | > 200 | < 5.70 | 46 | – | –
9 | Fc1ccc(-c2noc(C3CCN(c4cnc5ccc(OC(F)(F)F)cc5c4)CC3)n2)c(Cl)c1 | 8.52 | – | 110 | 33 | 18 | 6.38 | 28 | – | – | – | – | – | – | –
10 | O=C(O)CCc1nc(-c2ccc(F)cc2Cl)no1 | – | inactive | 10 | 0.3 | – | – | – | – | – | > 200 | – | – | inactive | –
11 | Fc1ccc(-c2noc(C3CCN(c4ccnc5ccccc45)CC3)n2)c(Cl)c1 | 5.54 | inactive | 35 | 2 | – | – | – | – | – | – | – | – | – | –
12 | CC1(C)CCCc2cc(N3CCC(c4nc(-c5ccc(F)cc5Cl)no4)CC3)cnc21 | 7.49 | – | 108 | 93 | > 399 | 6.14 | 380 | – | – | – | – | – | – | –
13 | Fc1ccc(-c2noc(C[C@@H]3CCN(c4cnc5ccccc5c4)C3)n2)c(Cl)c1 | 7.07 | – | 116 | 46 | 426 | 5.90 | 215 | < 5.70 | 23 | – | < 5.70 | 3 | – | –
14 | Clc1ccc(-c2noc(C3CCN(c4cnc5ccccc5c4)CC3)n2)cc1 | 5.75 | – | 26 | 26 | – | 5.58 | – | – | – | – | – | – | – | –
15 | CC(C)n1ccc2cc(N3CCC(c4nc(-c5ccc(F)cc5Cl)no4)CC3)cnc21 | 6.47 | inactive | 88 | 13 | – | – | – | – | – | – | – | – | – | –
16 | O=C(CCc1nc(-c2ccc(F)cc2Cl)no1)Nc1cnc2ccccc2c1 | 8.70 | – | 115 | 51 | 126 | 6.39 | 49 | 8.30 | 98 | > 200 | 6.25 | 49 | – | 95
17 | Fc1ccc(-c2noc(C3CCN(c4cnc5c(c4)CCCC5)CC3)n2)c(Cl)c1 | 7.72 | – | 113 | 60 | 130 | 6.04 | 95 | – | – | – | – | – | – | –
18 | Fc1ccc(-c2noc(C3CCN(c4cnc5ccccc5c4)CC3)n2)c(Cl)c1 | 7.05 | – | 101 | 36 | 80 | 5.52 | 92 | 7.77 | 95 | – | < 6.00 | 17 | – | –
19 | CC(CCc1nc(-c2ccc(F)cc2Cl)no1)Nc1cnc2ccccc2c1 (racemic) | 7.82 | – | 112 | 69 | > 399 | 5.81 | 142 | – | – | > 200 | – | – | – | –
20 | Fc1ccc(-c2noc(C[C@H]3CCN(c4cnc5ccccc5c4)C3)n2)c(Cl)c1 | 6.85 | – | 109 | 24 | 579 | 5.77 | 215 | – | – | – | – | – | – | –
21 | Fc1ccccc1-c1noc(C2CCN(c3cnc4ccccc4c3)CC2)n1 | 5.81 | inactive | 89 | 8 | – | – | – | – | – | – | – | – | – | –
22 | O=C(NCCc1nc(-c2ccc(F)cc2Cl)no1)c1cnc2ccccc2c1 | 5.81 | inactive | 87 | -1 | – | – | – | – | – | > 200 | – | – | – | –
23 | CC(C)c1noc(C2CCN(c3cnc4ccccc4c3)CC2)n1 | 5.84 | inactive | 38 | 8 | – | – | – | – | – | – | – | – | – | –
24 | Fc1ccc(-c2noc(CCCNc3cnc4ccccc4c3)n2)c(Cl)c1 | 7.96 | – | 104 | 103 | 614 | 6.33 | 179 | – | – | > 200 | – | – | – | –
25 | Clc1ccc(-c2noc(C3CCN(c4cnc5ccccc5c4)CC3)n2)c(Cl)c1 | 7.10 | – | 99 | 27 | 43 | 6.02 | 58 | – | – | – | – | – | – | –
26 | Fc1ccc(-c2noc([C@H]3C[C@@H]3CNc3cnc4ccccc4c3)n2)c(Cl)c1 (racemic) | 7.00 | inactive | 110 | 8 | 193 | – | 69 | < 5.70 | 0 | – | < 5.70 | 1 | – | –
